Experimental data taken from patent publication US20260183429A1, “COMPOSITIONS FOR MODULATING ACETYLATED TUBULIN LEVELS AND METHODS THEREOF” (THE TRUSTEES OF COLUMBIA UNIVERSITY IN THE CITY OF NEW YORK, priority 2023, published 2026).
Marks after values point to notes of the source that are not given here.

Experiments:
Type in all cases: cell-based, mouse
MFN2 KO MEFs [1] = assay: Mitochondrial morphology, motility, distribution and association with MTs in MFN2 KO MEFs; details: MFN2 KO cells
Method: For immunofluorescence staining of the MT cytoskeleton, cells were fixed in ice cold MetOH for 10′ prior to rehydration in PBS buffer. For all other staining, cells were fixed in 4% PFA for 15 min and permeabilized with 0.1% Triton X-100 for 5 min at R.T. Cells were then washed in PBS, blocked in 2% FBS and 2% BSA in PBS for 1 h, stained with primary antibodies overnight at 4° C. followed by secondary antibodies for 1 h. Mounted samples were observed using a Zeiss LSM 800 confocal microscope equipped with Airyscan module, using a 63× objective (Plan-Apochromat, NA 1.4). Z stack (0.2 um) images were acquired and processed using Zen Blue 2.1 software prior to analysis by ImageJ software. For 3D reconstruction, mitochondrial networks in individual cells were quantified by analyzing the network volume using Imaris software (Bitplane, Concord, MA). For line scan analysis, a line was drawn, and intensity was measured represented as gray values. The amount of fluorescence of the colocalizing pixels in each channel (Mander's coefficient) was calculated using ImageJ. The file was opened, and channels were split. Each select file was changed to 8-bit greyscale and max projection images was generated. Colocalization was assessed by Plugin co-localization finder. To calculate number of ATAT1 foci, each image was converted into an 8-bit greyscale image and ATAT1 signal thresholded until the foci appeared isolated from the background in a binary image. Both channels were then merged into one and the number of foci localizing in the merged stack quantified. To calculate ATAT1 localization with MFN2 on mitochondria, numbers of ATAT1 and MFN2 foci were quantified on each channel individually. Both channels were then merged into one and number of foci in the merged stack analyzed and quantified on mitochondria.
(§1) Mitochondria were labeled using MitoTracker™ Red CMROX according to manufacturer protocol (ThermoFisher Scientific) and detected by epifluorescence microscope equipped with 60× objective lens (Olympus IX81) and a monochrome CCD camera (Sensicam QE, Cooke Corporation). Aspect ratio (length/width) were measured in unedited image files by using Image J/FIJI. Brightness and contrast of the images were adjusted to optimize visualization of the mitochondrial segments and to reduce background noise. After selecting an individual cell, the Analyze Particles function (pixel size 10-infinity; circularity 0.00-1.00) was used to count the number of noncontiguous, discrete particles, and describe their shape. For mitochondrial distribution and displacement velocity mitochondria were live imaged for 3 min at 2 sec/frame at 37° C. A customized Mitoplot software was used for analyzing mitochondrial distribution by defining the center of cell and drawing a line towards periphery. Manual tracking plug-in in ImageJ/FIJI was used to analyze mitochondrial displacement velocity by selecting individual mitochondria.

WT MEFs = assay: MT plus end dynamics, GFP-tubulin live imaging, WT MEFs; details: WT + TSA
Method: (§2) Fibroblasts were transfected with pMSCV-puro-tagGFP-C4 α-tubulin plasmid to generate a green fluorescent protein (GFP)-tubulin stably expressing cell line. Live imaging of MT dynamics in transfected cells was performed at 37° C. and 5% CO2 for 5 min (5 s/f) with a 100×
(§3) PlanApo objective (numerical aperture 1.45) and an iXon X3 CCD camera (Andor, Belfast, United Kingdom) on a Nikon Eclipse Ti microscope controlled by Nikon's NIS-Elements software (Nikon, Tokyo, Japan). Movies were analyzed by ImageJ using a manual tracking plug-in. Dynamicity is calculated by dividing the sum of growth and shrinkage distances by MT lifetime.

MFN2 KO MEFs [2] = assay: MT plus end dynamics, GFP-tubulin live imaging, MFN2 KO MEFs
Method: as §2, §3

Iqgap1 KO MEFs [3] = assay: MT plus end dynamics, GFP-tubulin live imaging, Iqgap1 KO MEFs; details: Iqgap1 KO + TSA
Method: as §2, §3

[4] = tested on: acetylated tubulin in MFN2 KO MEFs; assay: Acetylated tubulin levels by immunoblot and immunofluorescence in MFN2 KO MEFs; details: MFN2 KO cells; 10 nM TSA, 6 h and 12 h (FIGS. 2A-2D)
Method: (§4) Cells were fixed in 4% PFA for 15 min and permeabilized with 0.1% Triton X-100 for 5 min at R.T. For the MT cytoskeleton, cells were fixed in ice cold MetOH for 10′ prior to rehydration in PBS buffer. Cells were then washed in PBS, blocked in 2% FBS and 2% BSA in PBS for 1 h, stained with primary antibodies overnight at 4° C. followed by secondary antibodies for 1 h. Mounted samples were observed using a Zeiss LSM 800 confocal microscope using a 63× objective (Plan-Apochromat, NA 1.4). Z stack (0.5 um) images were acquired. To calculate the Mitotic Index as percentage, the number of cells in mitosis were divided by the total number of cells multiplied by 100. […] ROIs were selected in both channels to calculate mean fluorescence and integrated density prior to calculating corrected total fluorescence intensity (CTCF=Integrated Density−(Area of selected cell*Mean fluorescence of background readings). For measuring MT associated MB11 intensity, an ROI was selected along individual tyrosinated MTs using ImageJ and GTP tubulin (hMB11) pixel intensity was calculated along the tyrosinated tubulin signal and corrected by subtracting out background signal fluorescence intensity.
(§5) Cells were lysed in Laemmli sample buffer and boiled at 96° C. for 5 min. […] Image acquisition was performed with an Odyssey imaging system (LI-COR Biosciences, NE) and analyzed with Odyssey software.

MFN2 KO MEFs [5] = assay: Mitochondria fusion by mitoDendra photoconversion in MFN2 KO MEFs; details: MFN2 KO cells; TSA 10 nM, 6 h
Excerpt: Dendra2 photoconversion and imaging utilized the protocol from Evrogen. Images were acquired with an Olympus spinning disk microscope EC-Plan-Neofluar 40X/1.3 oil. Z-stack acquisitions over-sampled each optical slice twice, and the Zen 2009 image analysis software was used for maximum z-projections. The 488 nm laser line and the 561 nm laser excited Dendra2 in the unconverted state and photo-converted state, respectively. To photo-switch Dendra2, a region was illuminated with the 405 nm line (4% laser power) for 90 bleaching iterations. The corrected total fluorescence intensity of both the channels was calculated using ImageJ and colocalization percentage was calculated.

MFN2 KO MEFs [6] = assay: Lipidomics of lipid classes in MFN2 KO MEFs; details: MFN2 KO cells; TSA 10 nM
MFN2 KO MEFs [7] = assay: MAM-dependent phospholipid synthesis, 3H-Ser incorporation into PtdSer and PtdEtn; details: TSA 10 nM, 6 h, after 2 h and 4 h
Method: Both mitochondria and ER play key roles in the synthesis of phosphatidylserine (PtdSer), phosphatidylethanolamine (PtdEtn), and phosphatidylcholine (PtdCho). PtdSer is synthesized in the MAM; it then translocates to mitochondria, where it is converted to PtdEtn; PtdEtn then translocates back to the MAM, to generate PtdCho. To test the effect of MFN2 on phospholipid synthesis mediated by MAM, WT and MFN2 KO MEF cells were incubated for 2 h with serum-free medium to ensure removal of exogenous lipids. The medium was then replaced with MEM containing […] of 3H-serine for 2, 4 and 6 h. The cells were washed and collected in DPBS, pelleted at 2500×g for 5 min at 4° C., and resuspended in 0.5 ml water, removing a small aliquot for protein quantification. Lipid extraction was done by the Bligh and Dyer method. Briefly, three volumes of chloroform/methanol 2:1 were added to the samples and vortexed. […] The spots corresponding to the relevant phospholipids (identified using co-migrating standards) were scraped and counted in a scintillation counter (Packard Tri-Carb 2900TR). […] Therefore, to directly test the effect of MFN2 mutations on phospholipid synthesis mediated by MAM, control and MFN2 KO fibroblasts were incubated in medium containing 3H-serine and measured the incorporation of the label into newly synthesized 3H-PtdSer and 3H-PtdEtn after 2 and 4 h.

[8] = tested on: acetylated tubulin in Iqgap1 KO MEFs; assay: Acetylated tubulin levels in Iqgap1 KO MEFs; details: 10 nM TSA, 6 h or 12 h
Method: as §4, §5

Iqgap1 KO MEFs [9] = assay: Mitochondria dynamics in Iqgap1 KO MEFs; details: 10 nM TSA, 6 h, compared with TTL silencing
Method: as §1

O=C(CCCCCCC(=O)Nc1ccc([C@H]2O[C@@H](CSc3nc(-c4ccccc4)c(-c4ccccc4)o3)C[C@@H](c3ccc(CO)cc3)O2)cc1)NO [tubacin, Tubacin]
mitochondrial displacement velocity, distribution, aspect ratio and fusion compared with TSA (MFN2 KO MEFs [1]; tubacin 20 μM, 6 h (FIGS. 3F-3I)): Identical results

CC(/C=C/C(=O)NO)=C\[C@@H](C)C(=O)c1ccc(N(C)C)cc1 [TSA, trichostatin A]
% Growth (WT MEFs; Table 3): 20.04 ± 1.28^c,x % | % Pause (WT MEFs; Table 3): 63.5 ± 0.64^c,x % | % Shrinkage (WT MEFs; Table 3): 18.25 ± 1.37^c,x % | Catastrophe frequency (WT MEFs; Table 3): 0.05 ± 0.004 s⁻¹ | Growth rate (WT MEFs; Table 3): 0.04 ± 0.007 μm/s | MT lifetime (WT MEFs; Table 3): 56.5 ± 3.66 s | Rescue freq. (WT MEFs; Table 3): 0.07 ± 0.006 s⁻¹ | Shrinkage rate (WT MEFs; Table 3): 0.07 ± 0.008 μm/s | % Growth (WT MEFs; Table 4 (Iqgap1 series)): 23.75 ± 0.85^b,x % | % Pause (WT MEFs; Table 4 (Iqgap1 series)): 50 ± 2.48^b,x % | % Shrinkage (WT MEFs; Table 4 (Iqgap1 series)): 27.25 ± 3.19% | Catastrophe frequency (WT MEFs; Table 4 (Iqgap1 series)): 0.06 ± 0.003 s⁻¹ | Growth rate (WT MEFs; Table 4 (Iqgap1 series)): 0.04 ± 0.004 μm/s | MT dynamicity (WT MEFs; Table 4 (Iqgap1 series)): 3.32 ± 0.24^a,x μm/min | MT lifetime (WT MEFs; Table 4 (Iqgap1 series)): 49.5 ± 2.32 s | Rescue freq. (WT MEFs; Table 4 (Iqgap1 series)): 0.07 ± 0.007 s⁻¹ | Shrinkage rate (WT MEFs; Table 4 (Iqgap1 series)): 0.03 ± 0.004 μm/s | % Growth (MFN2 KO MEFs [2]; MFN2 KO + TSA): 22.4 ± 0.90^c,y % | % Pause (MFN2 KO MEFs [2]; MFN2 KO + TSA): 62.13 ± 1.68^c,y % | % Shrinkage (MFN2 KO MEFs [2]; MFN2 KO + TSA): 16.05 ± 1.42^c,y % | Catastrophe frequency (MFN2 KO MEFs [2]; MFN2 KO + TSA): 0.05 ± 0.006 s⁻¹ | Growth rate (MFN2 KO MEFs [2]; MFN2 KO + TSA): 0.08 ± 0.005^a,y μm/s | MT dynamicity (MFN2 KO MEFs [2]; MFN2 KO + TSA): 4.858 ± 0.46^c,y μm/min | MT lifetime (MFN2 KO MEFs [2]; MFN2 KO + TSA): 60.25 ± 1.43 ^ s | Rescue freq. (MFN2 KO MEFs [2]; MFN2 KO + TSA): 0.09 ± 0.004 s⁻¹ | Shrinkage rate (MFN2 KO MEFs [2]; MFN2 KO + TSA): 0.08 ± 0.005^a,y μm/s | MT dynamics (MFN2 KO MEFs [2]; MFN2 KO cells + TSA (Table 3)): normalized | % Growth (Iqgap1 KO MEFs [3]): 25.25 ± 1.54^b,y % | % Pause (Iqgap1 KO MEFs [3]): 51.75 ± 1.10^b,y % | % Shrinkage (Iqgap1 KO MEFs [3]): 22.5 ± 0.86^b,y % | Catastrophe frequency (Iqgap1 KO MEFs [3]): 0.06 ± 0.004 s⁻¹ | Growth rate (Iqgap1 KO MEFs [3]): 0.095 ± 0.006^a,y μm/s | MT dynamicity (Iqgap1 KO MEFs [3]): 3.77 ± 0.33^b,y μm/min | MT lifetime (Iqgap1 KO MEFs [3]): 51.25 ± 1.79 s | Rescue freq. (Iqgap1 KO MEFs [3]): 0.08 ± 0.006 s⁻¹ | Shrinkage rate (Iqgap1 KO MEFs [3]): 0.09 ± 0.004 μm/s | acetylated tubulin levels [4]: normalized | co-localization of mitochondria with MTs (MFN2 KO MEFs [1]; 10 nM TSA, 6 h (FIGS. 2E, 2F)): restored | central and peripheral mitochondrial displacement velocity (MFN2 KO MEFs [1]; TSA 10 nM, 6 h): normalized | mitochondria distribution (MFN2 KO MEFs [1]; TSA 10 nM, 6 h): normalized | mitochondria elongated morphology (MFN2 KO MEFs [1]; TSA 10 nM, 6 h): partially reestablished | mitochondria fusion (MFN2 KO MEFs [5]): completely failed to recover | changes in sphingomyelin, cholesterol, cholesteryl esters and ceramide levels (MFN2 KO MEFs [6]): rescued | MAM-dependent phospholipid synthesis (3H-Ser into 3H-PtdSer and 3H-PtdEtn) (MFN2 KO MEFs [7]): failed to normalize | acetylated tubulin levels [8]: restoration of acetylated tubulin levels | mitochondria dynamics (Iqgap1 KO MEFs [9]): rescue of mitochondria dynamics
